Seven compounds from PMC3291479 (2011) can be followed below.

SMILES strings stand for the structures. Where two headings read alike, the source gives them in different places.

Holding throughout (assay type): biochemical
In experiment [1] the target is T1, NRH:quinone oxidoreductase 2 (NQO2) (Homo sapiens, UniProt P16083).
T1 sequence (P16083 1-231): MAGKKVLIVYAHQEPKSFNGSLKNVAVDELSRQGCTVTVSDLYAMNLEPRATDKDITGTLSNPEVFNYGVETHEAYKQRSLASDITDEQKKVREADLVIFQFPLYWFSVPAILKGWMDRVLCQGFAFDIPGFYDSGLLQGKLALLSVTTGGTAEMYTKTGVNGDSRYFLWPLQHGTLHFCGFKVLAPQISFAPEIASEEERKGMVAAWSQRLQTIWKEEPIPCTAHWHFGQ
The experiment is described as follows: rhNQO2 resazurin reduction, 96-well fluorescence assay.

Experiment [2] addresses T1, NRH:quinone oxidoreductase 2 (NQO2). The experiment is described as follows: NRH-dependent inactivation of rhNQO2. The following applies: read-out: rhNQO2 inhibition at 1μM ^a.
Experiment [3] shares this target. The experiment is described as follows: NRH-dependent inactivation of rhNQO2. The conditions noted are these: read-out: rhNQO2 inhibition at 1μM ^a. The source holds these as a separate data set.
Experiment [4] has the same target. The experiment is described as follows: NRH-dependent inactivation of rhNQO2. The conditions noted are these: read-out: rhNQO2 inhibition at 1μM ^a. The source holds these as a separate data set.

Consider `CCN(CC)CCCC(C)Nc1ccnc2cc(Cl)ccc12` (stereo not shown) [chloroquine], for which, in experiment [1], the “rhNQO2 resazurin reduction, 96-well fluorescence assay” value (shortened to “rhNQO2 resazurin reduction”) was “quercetin, imatinib, resveratrol, chloroquine, and melatonin for their ability to inhibit rhNQO2 activity in a cell-free system”.

For `Cc1c(COc2ccc([N+](=O)[O-])cc2)c2c(n1C)C(=O)C=C(NCCCCN)C2=O` [compound 1, 5-(4-aminobutyl)amino-1,2-dimethyl-3-[(4-nitrophenoxy)methyl]indole-4,7-dione], in experiment [2], the inhibition at 1 µM was 96%.

Turning to `Cc1c(COc2c(F)cc(F)cc2F)c2c(n1C)C(=O)C=C(NCCCCN)C2=O` [compound 2, 5-(4-aminobutyl)amino-1,2-dimethyl-3-[(2,4,6-trifluorophenoxy)methyl]indole-4,7-dione], in experiment [3], the inhibition at 1 µM was 96%.

On to `Cc1c(COc2c(F)cc(F)cc2F)c2c(n1C)C(=O)C(NCCCCN)=CC2=O` [compound 3, 6-(4-aminobutyl)amino-1,2-dimethyl-3-[(2,4,6-trifluorophenoxy)methyl]indole-4,7-dione], for which the inhibition at 1 µM in experiment [4] worked out at 33%.

For the compound `Cc1ccc(NC(=O)c2ccc(CN3CCN(C)CC3)cc2)cc1Nc1nccc(-c2cccnc2)n1` [imatinib], in experiment [1], the “rhNQO2 resazurin reduction” value is “quercetin, imatinib, resveratrol, chloroquine, and melatonin for their ability to inhibit rhNQO2 activity in a cell-free system”.

With `O=c1c(O)c(-c2ccc(O)c(O)c2)oc2cc(O)cc(O)c12` [quercetin], the “rhNQO2 resazurin reduction” value in experiment [1] is “quercetin, imatinib, resveratrol, chloroquine, and melatonin for their ability to inhibit rhNQO2 activity in a cell-free system”.

With `Oc1ccc(/C=C/c2cc(O)cc(O)c2)cc1` [resveratrol], the “rhNQO2 resazurin reduction” value in experiment [1] was “quercetin, imatinib, resveratrol, chloroquine, and melatonin for their ability to inhibit rhNQO2 activity in a cell-free system”.
